Each block holds one compound with its values, some of them ahead of it.
Legend:
[1] = system: HT-29 tumor; assay: Biodistribution of [^111In]ITDA2 in HT-29 tumor cancer-bearing mouse; assay type: in vivo; details: from Tables 8 and 9
Description: HT-29 cells (5×10^6 cells/mouse) and MDA-MB-231 cells (1×10^7 cells/mouse) were subcutaneously inoculated into the left shoulders of 5-week old male BALB/c nude mice, respectively, and the mice were used when the tumor diameter reached 6 to 10 mm. A saline solution (100 μL) in which [^111In]ITDA2 (40 kBq) had been dissolved was administered to each of the HT-29 tumor or MDA-MB-231 tumor cancer-bearing mice (n=5) via the tail vein. The HT-29 tumor cancer-bearing mice were slaughtered after the lapse of 1, 4, 8, and 24 hours from the administration, the MDA-MB-231 tumor cancer-bearing mouse was slaughtered after the lapse of 24 hours from the administration, and the blood, spleen, pancreas, stomach, intestines, kidney, liver, heart, lungs, brain, tumor, and muscle were recovered from each of the mice. The weight of each organ was measured, and the amount of radioactivity in each organ was measured by using a gamma counter. The accumulation of radioactivity in each organ except for stomach was expressed by % injected dose/g organ obtained by dividing the ratio of the amount of radioactivity of each organ to the administered amount of radioactivity by the organ weight. The stomach was expressed by % injected dose.

[2] = biological target: T1, CA-IX (Homo sapiens, UniProt Q16790); assay: In vitro autoradiography of tumor sections using [^123I]HIC205; assay type: binding; parameters: Fresh-frozen sections (each 14 μm) were prepared from a tumor having a tumor volume of around 200 mm^3; from tissue
Description: Fresh-frozen sections (each 14 μm) were prepared from a tumor having a tumor volume of around 200 mm^3, and then the prepared fresh-frozen sections were sufficiently air dried. The dried fresh-frozen sections were immersed in Tris-buffered saline (TBS), and then immersed in a TBS adjusted so as to have 5 kBq/ml of [^123I]HIC205 and a solution containing 400 μM acetazolamide in the TBS (both contained 0.1% dimethyl sulfoxide (DMSO)), and both the sections were incubated at the same time (at 37° C. for 30 minutes). After that, the resultant sections were washed with TBS and 40% ethanol (EtOH)-containing TBS, respectively, and then air dried. The air-dried sections were each brought into contact with an imaging plate (IP), and were read out by a bioimaging analyzer BAS2000 (manufactured by FUJIFILM Corporation). The section used for autoradiography (ARG) was directly subjected to immunohistochemistry that was performed by using a goat-derived anti-CA-IX antibody.
The localization of the radioactivity of [^123I]HIC205 and the difference in the binding of [^123I]HIC205 between the individual treatments are shown FIG. 1.
The results of the comparison of the localization of the radioactivity of [^123I]HIC205 with the expression of CA-IX are shown in FIGS. 2A and 2B. […] The region between two arrows indicates the part where the binding of [^123I]HIC205 and the expression of CA-IX are not consistent. Further, FIG. 2B is an enlarged view showing the region between the two arrows of the result of immunohistochemical staining of animal B shown in the lower left of FIG. 2A, in which the result of immunohistochemical staining of FIG. 2A was shown on the left side, and an enlarged view of the region between the two arrows was shown on the right side. The parts indicated by the arrows indicate the overlap of the section.

[3] = biological target: T1, CA-IX; assay: Affinity of non-radioactive HIC205 for CA-IX measured by Biacore; assay type: binding; parameters: purchased R&D Systems Inc
Description: The affinity was measured by using Biacore (manufactured by GE Healthcare). Human CA-IX (manufactured by R&D Systems Inc.) was immobilized on a sensor chip (CM7) by an amino coupling method. After non-radioactive HIC205 was dissolved in 100% dimethyl sulfoxide (DMSO), the obtained solution was diluted with a running buffer in a stepwise manner by 10 times, and a non-radioactive HIC205 solution containing 0.1% DMSO was finally prepared. Based on this, a 2-fold dilution series was prepared with the running buffer containing 0.1% DMSO, and the measurement was performed. In this regard, the composition of the running buffer was 0.01 M HEPES (pH 7.4), 0.15M sodium chloride, and 0.005% v/v Surfactant P20. The sensorgram obtained from each concentration was directly curve fitted by a non-linear least-squares method, and the affinity was calculated.

Tumor/muscle ratio compared with ITDA1 [1]: almost the same value as that of ITDA1
Structure (SMILES): NS(=O)(=O)c1nn2cc(-c3ccc(NC(=O)CN4CCN(CC(=O)O)CCN(CC(=O)Nc5ccc(-c6cn7nc(S(N)(=O)=O)sc7n6)cc5)CCN(CC(=O)O)CC4)cc3)nc2s1 [ITDA2, 2,2′-(4,10-bis(2-oxo-2-((4-(2-sulfamoylimidazo[2,1-b][1,3,4]thiadiazol-6-yl)phenyl)amino)ethyl)-1,4,7,10-tetraazacyclododecan-1,7-diyl) diacetic acid]
Tumor accumulation compared with ITDA1 [1]: lower values as compared with those of ITDA1
Tumor/blood ratio compared with ITDA1 [1]: lower values as compared with those of ITDA1

Binding on the tumor section with simultaneous incubation with acetazolamide ([2]; 400 μM acetazolamide): decreased
Localization of the radioactivity after washing the section with 40% ethanol ([2]; 40% ethanol-containing TBS wash): significantly reduced
Binding ability to CA-IX ([2]; conclusion of autoradiography): has binding ability to CA-IX
Localization of radioactivity compared with expression site of CA-IX (immunohistochemical staining) ([2]; two animals): mostly consistent
Structure (SMILES): NS(=O)(=O)c1nn2cc(-c3ccc([123I])cc3)nc2s1 [[^123I]HIC205]
Binding on the tumor section (autoradiogram) ([2]; 5 kBq/ml, 37° C. for 30 minutes, washed with TBS): confirmed with contrast on the tumor section

Kd ([3]; immobilized human CA-IX, n = 1): 109 pM
Dissociation constant (×10^−3) ([3]; n = 1): 0.903 ×10^−3 [1/s]
kon ([3]; n = 1, read-out: Binding constant (×10^5)): 8.31e+06 M⁻¹ s⁻¹
Structure (SMILES): NS(=O)(=O)c1nn2cc(-c3ccc(I)cc3)nc2s1 [non-radioactive HIC205, 6-(4-iodophenyl)imidazo[2,1-b][1,3,4]thiadiazole-2-sulfonamide]

Source: patent US20210322582A1, “RADIOACTIVE IMIDAZOTHIADIAZOLE DERIVATIVE COMPOUND” (Nihon Medi-Physics Co., Ltd., priority 2018, published 2021)
